Experimental data as given in patent US9233983B2, “Substituted hetero-bicyclic compounds, compositions and medicinal applications thereof” (ADVINUS THERAPEUTICS LIMITED, priority 2012, dated 2016).

Molecular target: human Bruton's Tyrosine Kinase (Btk) (Homo sapiens (Human), UniProt Q06187)
Assay: Recombinant Human Bruton's Tyrosine Kinase (Btk) Inhibition Assay (HTRF KinEASE-TK)
Type: biochemical
Settings: 20 ng/ml rhBtk, 77 μM ATP (KM), 1 μM TK-Biotin substrate, 90 min; read-out: hBTK IC50

human Bruton's Tyrosine Kinase (Btk), sequence (Q06187 whole entry): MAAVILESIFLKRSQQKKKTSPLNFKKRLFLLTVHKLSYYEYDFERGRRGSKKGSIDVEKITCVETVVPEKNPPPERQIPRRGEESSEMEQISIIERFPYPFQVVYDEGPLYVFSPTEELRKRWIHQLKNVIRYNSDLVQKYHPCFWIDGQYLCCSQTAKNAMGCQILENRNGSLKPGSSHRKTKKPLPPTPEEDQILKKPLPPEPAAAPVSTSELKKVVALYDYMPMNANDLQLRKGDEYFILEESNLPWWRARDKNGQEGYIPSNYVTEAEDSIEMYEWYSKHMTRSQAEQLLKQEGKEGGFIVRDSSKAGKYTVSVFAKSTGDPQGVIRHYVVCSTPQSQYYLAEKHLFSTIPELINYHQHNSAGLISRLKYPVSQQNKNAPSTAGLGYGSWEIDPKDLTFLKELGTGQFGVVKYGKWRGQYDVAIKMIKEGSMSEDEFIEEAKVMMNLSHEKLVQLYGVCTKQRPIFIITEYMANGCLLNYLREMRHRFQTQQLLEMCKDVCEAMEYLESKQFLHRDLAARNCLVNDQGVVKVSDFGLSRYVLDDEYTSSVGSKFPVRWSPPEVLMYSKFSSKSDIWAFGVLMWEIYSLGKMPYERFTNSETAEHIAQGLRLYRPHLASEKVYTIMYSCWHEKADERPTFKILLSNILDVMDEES

An IC50 of 515 nM was found for `Cc1c(-c2ncnc3[nH]c(-c4cccc(CN5CCNCC5)c4)cc23)cccc1N1CCc2cc(C3CC3)ccc2C1=O` [Example A-3, 6-cyclopropyl-2-[2-methyl-3-[6-[3-(piperazin-1-ylmethyl)phenyl]-7H-pyrrolo[2,3-d]pyrimidin-4-yl]phenyl]-3,4-dihydroisoquinolin-1-one] in this work.
An IC50 of 396 nM was found for `Cc1c(-c2ncnc3[nH]c(-c4cccc(CN5CCNCC5)c4)cc23)cccc1N1CCOc2cc(C3CC3)ccc2C1=O` [Example A-4, 8-cyclopropyl-4-[2-methyl-3-[6-[3-(piperazin-l-ylmethyl)phenyl]-7H-pyrrolo[2,3-d]pyrimidin-4-yl]phenyl]-2.3-dihydro-l,4-benzoxazepin-5-one] in this work.
An IC50 of 92 nM was found for `Cc1c(-c2ncnc3[nH]c(-c4ccc(CN5CCOCC5)cc4)cc23)cccc1N1CCOc2cc(C3CC3)ccc2C1=O` [Example A-5, 8-cyclopropyl-4-[2-methyl-3-[6-[4-(morpholinomethyl)phenyl]-7H-pyrrolo[2,3-d]pyrimidin-4-yl]phenyl]-2,3-dihydro-1,4-benzoxazepin-5-one] in this work.
An IC50 of 143 nM was found for `Cc1c(-c2ncnc3[nH]c(-c4ccc(CN5CCOCC5)cc4)cc23)cccc1N1CCc2cc(C3CC3)ccc2C1=O` [Example A-6, 6-cyclopropyl-2-[2-methyl-3-[6-[4-(morpholinomethyl)phenyl]-7H-pyrrolo[2,3-d]pyrimidin-4-yl]phenyl]-3,4-dihydroisoquinolin-1-one] in this work.
An IC50 of 415 nM was found for `Cc1c(-c2ncnc3[nH]c(-c4cccc(CN5CCOCC5)c4)cc23)cccc1N1CCOc2cc(C3CC3)ccc2C1=O` [Example A-7, 8-cyclopropyl-4-[2-methyl-3-[6-[3-(morpholinomethyl)phenyl]-7H-pyrrolo[2,3-d]pyrimidin-4-yl]phenyl]-2,3-dihydro-1,4-benzoxazepin-5-one] in this work.
An IC50 of 825 nM was found for `Cc1c(-c2ncnc3[nH]c(-c4cccc(CN5CCOCC5)c4)cc23)cccc1N1CCc2cc(C3CC3)ccc2C1=O` [Example A-8, 6-cyclopropyl-2-[2-methyl-3-[6-[3-(morpholinomethyl)phenyl]-7H-pyrrolo[2,3-d]pyrimidin-4-yl]phenyl]-3,4-dihydroisoquinolin-1-one] in this work.
An IC50 of 30 nM was found for `Cc1c(-c2ncnc3[nH]c(-c4ccc(CN5CCN(C)CC5)cc4)cc23)cccc1N1CCc2cc(C3CC3)ccc2C1=O` [Example B-3, 6-cyclopropyl-2-[2-methyl-3-[6-[4-[(4-methylpiperazin-1-yl)methyl]phenyl]-7H-pyrrolo[2,3-d]pyrimidin-4-yl]phenyl]-3,4-dihydroisoquinolin-1-one] in this work.
An IC50 of 41 nM was found for `CCN1CCN(Cc2ccc(-c3cc4c(-c5cccc(N6CCc7cc(C8CC8)ccc7C6=O)c5C)ncnc4[nH]3)cc2)CC1` [Example B-4, 6-cyclopropyl-2-[3-[6-[4-[(4-ethylpiperazin-1-yl)methyl]phenyl]-7H-pyrrolo[2,3-d]pyrimidin-4-yl]-2-methyl-phenyl]-3,4-dihydroisoquinolin-1-one] in this work.
An IC50 of 7 nM was found for `CN1CCN(Cc2ccc(-c3cc4c(-c5cccc(-n6ccc7cc(C8CC8)ccc7c6=O)c5CO)ncnc4[nH]3)cc2)CC1` [Example B-8, 6-cyclopropyl-2-[2-(hydroxymethyl)-3-[6-[4-[(4-methylpiperazin-1-yl)methyl]phenyl]-7H-pyrrolo[2,3-d]pyrimidin-4-yl]phenyl]isoquinolin-1-one] in this work.
An IC50 of 10 nM was found for `Cc1c(-c2ncnc3[nH]c(-c4ccc(CN5CCN(C)CC5)cc4)cc23)cccc1-n1ccc2cc(C3CC3)ccc2c1=O` [Example B-9, 6-cyclopropyl-2-[2-methyl-3-[6-[4-[(4-methylpiperazin-l-yl)methyl]phenyl]-7H-pyrrolo[2,3-d]pyrimidin-4-yl]phenyl]isoquinolin-1-one] in this work.
An IC50 of 254 nM was found for `Cc1c(-c2ncnc3[nH]c(-c4ccc(CN5CCNC(=O)C5)cc4)cc23)cccc1N1CCc2cc(C3CC3)ccc2C1=O` [Example B-11, 6-cyclopropyl-2-[2-methyl-3-[6-[4-[(3-oxopiperazin-1-yl)methyl]phenyl]-7H-pyrrolo[2,3-d]pyrimidin-4-yl]phenyl]-3,4-dihydroisoquinolin-1-one] in this work.
An IC50 of 115 nM was found for `Cc1c(-c2ncnc3[nH]c(-c4ccc(CN5CCC(C)(O)CC5)cc4)cc23)cccc1N1CCc2cc(C3CC3)ccc2C1=O` [Example B-12, 6-cyclopropyl-2-[3-[6-[4-[(4-hydroxy-4-methyl-1-piperidyl)methyl]phenyl]-7H-pyrrolo[2,3-d]pyrimidin-4-yl]-2-rnethyl-phenyl]-3,4-dihydroisoquinolin-1-one] in this work.
An IC50 of 103 nM was found for `Cc1c(-c2ccnc3[nH]c(-c4ccc(CN5CCN(C)CC5)cc4)cc23)cccc1N1CCOc2cc(C3CC3)ccc2C1=O` [Example B-15, 8-cyclopropyl-4-[2-methyl-3-[2-[4-[(4-methylpiperazin-1-yl)methyl]phenyl]-1H-pyrrolo[2,3-b]pyridin-4-yl]phenyl]-2,3-dihydro-1,4-benzoxazepin-5-one] in this work.
An IC50 of 9 nM was found for `CN1CCN(Cc2ccc(-c3cc4c(-c5cccc(N6CCOc7cc(C8CC8)ccc7C6=O)c5CO)ccnc4[nH]3)c(F)c2)CC1` [Example B-18, 8-cyclopropyl-4-[3-[2-[2-fluoro-4-[(4-methylpiperazin-1-yl)methyl]phenyl]-1H-pyrrolo[2,3-b]pyridin-4-yl]-2-(hydroxymethyl)phenyl]-2,3-dihydro-1,4-benzoxazepin-5-one] in this work.
An IC50 of 190 nM was found for `Cc1c(-c2ccnc3[nH]c(-c4ccc(CN5CCN(C)CC5)c(F)c4)cc23)cccc1N1CCOc2cc(C3CC3)ccc2C1=O` [Example B-19, 8-cyclopropyl-4-[3-[2-[3-fluoro-4-[(4-methylpiperazin-1-yl)methyl]phenyl]-lH-pyrrolo[2,3-b]pyridin-4-yl]-2-methyl-phenyl]-2,3-dihydro-1,4-benzoxazepin-5-one] in this work.
An IC50 of 8 nM was found for `CCN1CCN(Cc2ccc(-c3cc4c(-c5cccc(N6CCOc7cc(C8CC8)ccc7C6=O)c5CO)ccnc4[nH]3)cn2)CC1` [Example B-21, 8-cyclopropyl-4-[3-[2-[6-[(4-ethylpiperazin-1-yl)methyl]-3-pyridyl]-1H-pyrrolo[2,3-b]pyridin-4-yl]-2-(hydroxymethyl)phenyl]-2,3-dihydro-1,4-benzoxazepin-5-one] in this work.
An IC50 of 11 nM was found for `CN1CC=C(c2ccc(-c3cc4c(-c5cccc(N6CCOc7cc(C8CC8)ccc7C6=O)c5CO)ccnc4[nH]3)cc2)CC1` [Example C-4, 8-cyclopropyl-4-[2-(hydroxymethyl)-3-[2-[4-(1-methyl-3,6-dihydro-2H-pyridin-4-yl)phenyl]-1H-pyrrolo[2,3-b]pyridin-4-yl]phenyl]-2,3-dihydro-1,4-benzoxazepin-5-one] in this work.
An IC50 of 13 nM was found for `Cc1c(-c2ncnc3[nH]c(-c4cnn(C5CCN(C)CC5)c4)cc23)cccc1N1CCOc2cc(C3CC3)ccc2C1=O` [Example D-2, 8-cyclopropyl-4-[2-methyl-3-[6-[1-(1-methyl-4-piperidyl)pyrazol-4-yl]-7H-pyrrolo[2,3-d]pyrimidin-4-yl]phenyl]-2,3-dihydro-1,4-benzoxazepin-5-one] in this work.
An IC50 of 9 nM was found for `Cc1nn(C2CN(C)C2)cc1-c1cc2c(-c3cccc(N4CCOc5cc(C6CC6)ccc5C4=O)c3CO)ccnc2[nH]1` [Example E-1, 8-cyclopropyl-4-[2-(hydroxymethyl)-3-[2-[3-methyl-1-(1-methylazetidin-3-yl)pyrazol-4-yl]-1H-pyrrolo[2,3-b]pyridin-4-yl]phenyl]-2,3-dihydro-1,4-benzoxazepin-5-one] in this work.
An IC50 of 43 nM was found for `O=C1c2ccc(C3CC3)cc2OCCN1c1cccc(-c2ccnc3[nH]c(-c4cnn(C5CCOCC5)c4)cc23)c1CO` [Example F-2, 8-cyclopropyl-4-[2-(hydroxymethyl)-3-[2-(1-tetrahydropyran-4-ylpyrazol-4-yl)-1H-pyrrolo[2,3-b]pyridin-4-yl]phenyl]-2,3-dihydro-1,4-benzoxazepin-5-one] in this work.
An IC50 of 13 nM was found for `Cc1c(-c2ncnc3[nH]c(-c4ccc(C5CCN(CCO)CC5)cc4)cc23)cccc1-n1ccc2cc(C3CC3)ccc2c1=O` [Example H-1, 6-cyclopropyl-2-[3-[6-[4-[1-(2-hydroxyethyl)-4-piperidyl]phenyl]-7H-pyrrolo[2,3-d]pyrimidin-4-yl]-2-methyl-phenyl]isoquinolin-1-one] in this work.
An IC50 of 35 nM was found for `CN1CCN(Cc2ccc(-c3cc4c(-c5cccc(N6CCOc7cc(C8CC8)cnc7C6=O)c5CO)ccnc4[nH]3)nc2)CC1` [Example I-3, 8-cyclopropyl-4-[2-(hydroxymethyl)-3-[2-[5-[(4-methylpiperazin-1-yl)methyl]-2-pyridyl]-1H-pyrrolo[2,3-b]pyridin-4-yl]phenyl]-2,3-dihydropyrido[2,3-f][1,4]oxazepin-5-one] in this work.
In the case of `CN(C)C(=O)N1CCN(Cc2ccc(-c3cc4c(-c5cccc(N6CCOc7cc(C8CC8)ccc7C6=O)c5CO)ccnc4[nH]3)nc2)CC1` [Example I-11, 4-[[6-[4-[3-(8-cyclopropyl-5-oxo-2,3-dihydro-1,4-benzoxazepin-4-yl)-2-(hydroxymethyl)phenyl]-1H-pyrrolo[2,3-b]pyridin-2-yl]-3-pyridyl]methyl]-N,N-dimethyl-piperazine-1-carboxamide], the IC50 is reported as > 1000 nM.
An IC50 of 1.3 nM was found for `O=C1c2c(F)cc(C3CC3)cc2OCCN1c1cc(F)cc(-c2ccnc3[nH]c(-c4ccc(CN5CCN(C6COC6)CC5)cn4)cc23)c1CO` [Example I-17, 8-cyclopropyl-6-fluoro-4-[5-fluoro-2-(hydroxymethyl)-3-[2-[5-[[4-(oxetan-3-yl)piperazin-1-yl]methyl]-2-pyridyl]-1H-pyrrolo[2,3-b]pyridin-4-yl]phenyl]-2,3-dihydro-1,4-benzoxazepin-5-one] in this work.
An IC50 of 42 nM was found for `Cc1c(-c2ncnc3[nH]c(-c4ccc(C(=O)N5CCCC(O)C5)cc4)cc23)cccc1N1CCOc2cc(C3CC3)ccc2C1=O` (centres unmarked) [Example K-3, 8-cyclopropyl-4-[3-[6-[4-(3-hydroxypiperidine-1-carbonyl)phenyl]-7H-pyrrolo[2,3-d]pyrimidin-4-yl]-2-methyl-phenyl]-2,3-dihydro-1,4-benzoxazepin-5-one] in this work.
An IC50 of 171 nM was found for `Cc1c(-c2ncnc3[nH]c(-c4ccc(C(=O)N5CCCCC5)cc4)cc23)cccc1N1CCOc2cc(C3CC3)ccc2C1=O` [Example K-5, 8-cyclopropyl-4-[2-methyl-3-[6-[4-(piperidine-1-carbonyl)phenyl]-7H-pyrrolo[2,3-d]pyrimidin-4-yl]phenyl]-2,3-dihydro-1,4-benzoxazepin-5-one] in this work.
